Measurements as given in ChEMBL document CHEMBL1201862, “PubChem BioAssay data set” (2004).
Activity calls are given as the source filed them.

Tests used:
[1] = Luminescence Cell-Based Dose Response HTS to Identify Inhibitors of 5'UTR Stem-Loop Driven Prion Protein mRNA Translation in H4 Neuroglioblastoma Cells. [Related pubchem assays: 1827 (Project Summary), 1813 (Primary HTS)]; assay type: functional
[2] = alpha-synuclein stem-loop translation blockers – luminescence, H4 neuroglioblastoma cells, dose confirmation, confirmation (AID 2454); assay type: functional, cell-based;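 also: H4 neuroglioblastoma cells carrying an alpha-synuclein 5'UTR luciferase reporter; potency for inhibition of the luciferase signal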
cells = assay type: functional, cell-based
[3] = alpha-synuclein stem-loop luciferase translation blockers – H4 neuroglioma cells, luminescence, confirmation (AID 1988); assay type: functional, cell-based
[4] = luciferase reporter signal suppression in cells – H4 neuroglioma cells, luminescence, dose response (AID 1990); assay type: functional, cell-based
[5] = luciferase reporter signal reduction – luminescence, H4-C neuroglioblastoma cells, dose response (AID 2458); assay type: functional, cell-based;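 also: H4 neuroglioblastoma cells stably carrying a luciferase reporter gene fusion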
[6] = target: T1, Microphthalmia-associated transcription factor (Homo sapiens, UniProt O75030); assay: reducers of TRPM1 reporter luminescence, concentration series – cell-based, SK-MEL-5, cherry-picked, set 3, MITF inhibitor project, dose response (AID 493073); assay type: functional;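 also: SK-MEL-5 melanoma cells with luciferase driven by the MITF target TRPM1 promoter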
T1 sequence (O75030 whole entry): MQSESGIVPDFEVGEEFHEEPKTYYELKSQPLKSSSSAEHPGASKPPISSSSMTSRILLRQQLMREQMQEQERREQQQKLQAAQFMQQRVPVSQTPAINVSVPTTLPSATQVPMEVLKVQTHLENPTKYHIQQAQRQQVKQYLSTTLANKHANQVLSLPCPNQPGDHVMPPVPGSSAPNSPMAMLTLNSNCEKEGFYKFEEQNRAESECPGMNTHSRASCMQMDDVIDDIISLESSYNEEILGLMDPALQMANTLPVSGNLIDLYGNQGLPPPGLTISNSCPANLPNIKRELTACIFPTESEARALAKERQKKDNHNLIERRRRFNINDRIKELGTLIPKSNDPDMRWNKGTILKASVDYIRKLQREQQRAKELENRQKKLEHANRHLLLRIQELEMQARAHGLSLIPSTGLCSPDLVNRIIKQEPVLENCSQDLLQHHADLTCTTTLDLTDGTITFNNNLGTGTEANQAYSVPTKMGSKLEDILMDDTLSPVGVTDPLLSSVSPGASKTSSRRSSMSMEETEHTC

ORF 73 = target: T2, ORF 73 (Human herpesvirus 8, UniProt O40947); assay: KSHV LANA DNA-binding disruption – biochemical, fluorescence polarization, cherry-picked samples, dose response (AID 504725); design: species or system Human gammaherpesvirus 8;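 also: fluorescence polarization of a labeled DNA duplex reporting LANA DNA binding; potency is for inhibitors that block LANA binding to the DNA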
T2 sequence (O40947 whole entry): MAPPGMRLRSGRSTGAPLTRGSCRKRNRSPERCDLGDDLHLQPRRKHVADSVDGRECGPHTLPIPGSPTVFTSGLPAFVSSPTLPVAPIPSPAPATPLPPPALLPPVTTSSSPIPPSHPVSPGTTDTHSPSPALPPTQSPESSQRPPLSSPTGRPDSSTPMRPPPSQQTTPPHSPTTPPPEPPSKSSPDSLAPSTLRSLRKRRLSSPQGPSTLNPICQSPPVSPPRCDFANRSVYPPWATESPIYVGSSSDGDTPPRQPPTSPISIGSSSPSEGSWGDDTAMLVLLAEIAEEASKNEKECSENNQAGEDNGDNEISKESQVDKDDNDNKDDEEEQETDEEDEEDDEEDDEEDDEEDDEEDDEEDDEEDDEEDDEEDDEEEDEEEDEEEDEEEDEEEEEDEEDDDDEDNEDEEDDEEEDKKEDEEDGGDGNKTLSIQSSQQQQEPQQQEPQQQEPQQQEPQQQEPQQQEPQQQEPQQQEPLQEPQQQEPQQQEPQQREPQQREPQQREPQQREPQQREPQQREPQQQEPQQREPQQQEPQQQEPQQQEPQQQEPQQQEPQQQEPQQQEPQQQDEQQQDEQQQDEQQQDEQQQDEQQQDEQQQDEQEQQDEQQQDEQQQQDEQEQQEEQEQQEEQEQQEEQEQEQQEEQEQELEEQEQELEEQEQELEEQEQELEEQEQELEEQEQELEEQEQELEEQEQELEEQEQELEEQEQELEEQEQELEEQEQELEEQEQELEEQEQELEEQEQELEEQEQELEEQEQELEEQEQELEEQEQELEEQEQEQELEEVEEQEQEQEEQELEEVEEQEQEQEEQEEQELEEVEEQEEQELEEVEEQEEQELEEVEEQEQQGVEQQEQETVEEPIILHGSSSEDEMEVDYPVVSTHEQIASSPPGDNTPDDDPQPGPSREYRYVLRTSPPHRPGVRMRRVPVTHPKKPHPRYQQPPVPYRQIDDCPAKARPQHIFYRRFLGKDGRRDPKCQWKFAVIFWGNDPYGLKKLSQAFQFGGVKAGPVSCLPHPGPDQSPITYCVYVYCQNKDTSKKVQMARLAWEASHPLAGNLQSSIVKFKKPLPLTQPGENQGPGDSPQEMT

fMet-Leu-Phe receptor = target: T3, fMet-Leu-Phe receptor (Homo sapiens, UniProt P21462); assay: formyl peptide receptor binders – dose response (AID 519); assay type: functional
T3 sequence (P21462 whole entry): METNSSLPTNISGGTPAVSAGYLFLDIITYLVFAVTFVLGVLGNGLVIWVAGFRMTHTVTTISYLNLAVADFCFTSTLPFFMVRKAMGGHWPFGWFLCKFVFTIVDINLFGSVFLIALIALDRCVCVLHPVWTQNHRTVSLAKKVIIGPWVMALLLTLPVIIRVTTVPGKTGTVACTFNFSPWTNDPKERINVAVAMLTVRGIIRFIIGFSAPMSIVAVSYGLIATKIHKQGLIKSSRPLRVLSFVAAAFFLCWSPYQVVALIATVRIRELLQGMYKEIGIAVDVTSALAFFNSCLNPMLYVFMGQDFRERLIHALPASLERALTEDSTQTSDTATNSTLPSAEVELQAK

HeLa = assay: viability loss in HeLa cells – cell-based, 24 h, cherry-picked samples, cytotoxicity control, dose response (AID 504726); assay type: functional; conditions: Homo sapiens;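 also: potency for cytotoxicity as loss of luminescence signal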
[7] = target: T4, RNA-binding protein pos-1 (Caenorhabditis elegans, UniProt G5EF15); assay: disruptors of C. elegans POS-1 RNA interaction – biochemical, fluorescence polarization, dose response (AID 1964);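 also: purified POS-1 fused to maltose binding protein made in E. coli; potency of compounds blocking POS-1 binding to fluorescent RNA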
T4 sequence (G5EF15 whole entry): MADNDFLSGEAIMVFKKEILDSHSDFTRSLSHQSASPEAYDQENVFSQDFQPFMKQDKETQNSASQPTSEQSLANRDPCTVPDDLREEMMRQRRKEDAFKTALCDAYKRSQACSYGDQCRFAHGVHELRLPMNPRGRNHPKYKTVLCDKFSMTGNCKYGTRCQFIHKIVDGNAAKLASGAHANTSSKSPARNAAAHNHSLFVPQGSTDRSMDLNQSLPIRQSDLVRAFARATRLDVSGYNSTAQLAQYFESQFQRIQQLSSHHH

[8] = target: T5, Zinc finger protein mex-5 (Caenorhabditis elegans, UniProt Q9XUB2); assay: potency of MEX-5 RNA-binding blockers – biochemical, C. elegans, fluorescence polarization, dose response (AID 1960)
T5 sequence (Q9XUB2 whole entry): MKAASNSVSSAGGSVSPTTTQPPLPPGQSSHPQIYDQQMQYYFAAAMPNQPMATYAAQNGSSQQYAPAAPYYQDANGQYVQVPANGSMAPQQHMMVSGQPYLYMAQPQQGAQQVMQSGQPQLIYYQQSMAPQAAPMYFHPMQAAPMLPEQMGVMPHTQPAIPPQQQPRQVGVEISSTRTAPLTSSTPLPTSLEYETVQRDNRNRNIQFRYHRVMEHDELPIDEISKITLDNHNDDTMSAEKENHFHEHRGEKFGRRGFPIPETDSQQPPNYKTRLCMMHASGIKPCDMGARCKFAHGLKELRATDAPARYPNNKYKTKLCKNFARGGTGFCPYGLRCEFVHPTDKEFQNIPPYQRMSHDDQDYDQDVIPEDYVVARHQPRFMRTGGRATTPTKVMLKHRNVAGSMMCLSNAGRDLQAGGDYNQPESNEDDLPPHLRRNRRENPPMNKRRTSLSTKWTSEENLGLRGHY

[9] = HEK-293T cell viability reduction – luminescence, B-cell screen hits, cytotoxicity control for BCR NF-kB inhibitor project, dose response (AID 489021); assay type: functional, cell-based;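 also: HEK-293T cells carrying an NF-kB luciferase reporter; cells exposed to compound for about 14 hours before viability readout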
[10] = target: Peroxisome proliferator-activated receptor gamma/Nuclear receptor coactivator 2 (Homo sapiens, UniProt P37231); assay: (§1) TR-FRET dose response biochemical High Throughput Screening assay for agonists of the steroid receptor coactivator 2 (SRC-2) recruitment by the peroxisome proliferator-activated receptor gamma (PPAR gamma): non-selective agonists. [Related pubchem assays: 1297, 1032 ]; assay type: functional
[11] = target: Peroxisome proliferator-activated receptor gamma/Nuclear receptor coactivator 1 (Homo sapiens, UniProt P37231); assay: as §1, with “1 (SRC-1)” for “2 (SRC-2)”, “assays (depositor defined):AID1300, AID1808, AID504735, AID631]” for “assays: 1297, 1032 ]”; assay type: protein assay
[12] = target: Peroxisome proliferator-activated receptor gamma/Nuclear receptor coactivator 3 (Homo sapiens, UniProt P37231); assay: as §1, with “3 (SRC-3)” for “2 (SRC-2)”, “1301 (Confirmation screen.), 1048 (Primary screen.)]” for “1297, 1032 ]”; assay type: functional
Large T antigen = Large T antigen (Simian virus 40, UniProt P03070); assay type: functional, Betapolyomavirus macacae;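 also: Confirmatory-stage PubChem screen for compounds that inhibit SV40 T antigen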
[13] = HEK-293T viability loss after treatment – luminescence, T-cell screen hits, cytotoxicity control for TCR NF-kB inhibitor project, dose response (AID 489026); assay type: functional, cell-based;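 also: cells exposed to compound about 14 hours before the viability readout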
[14] = target: Eukaryotic translation initiation factor 4E (Mus musculus, UniProt P63073); assay: blockers of eIF4G binding by eIF4E – biochemical, TR-FRET, dose response (AID 855); assay type: functional;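 also: potency for disrupting eIF4E binding to eIF4GI seen as loss of FRET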
[15] = target: T6, Carboxy-terminal domain RNA polymerase II polypeptide A small phosphatase 1 (Homo sapiens, UniProt Q9GZU7); assay: CTDSP1 inhibitors, concentration-response, biochemical, absorbance readout, ultra-high-throughput screen actives (AID 540297); assay type: functional
T6 sequence (Q9GZU7 whole entry): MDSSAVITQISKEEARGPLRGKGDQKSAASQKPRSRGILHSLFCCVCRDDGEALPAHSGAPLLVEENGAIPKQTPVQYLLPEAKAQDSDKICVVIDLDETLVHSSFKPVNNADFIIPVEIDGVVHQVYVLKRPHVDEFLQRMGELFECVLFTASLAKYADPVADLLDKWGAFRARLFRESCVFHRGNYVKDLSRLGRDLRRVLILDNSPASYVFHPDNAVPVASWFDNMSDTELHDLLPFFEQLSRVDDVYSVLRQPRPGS

[16] = A Cell Based Secondary Assay To Explore Cytotoxicity of Compounds that Sensitize Mycobacterium Tuberculosis to Beta-Lactam Antibiotics.; assay type: functional

Eukaryotic translation initiation factor 4E, sequence (P63073 whole entry, the tested form may be a part): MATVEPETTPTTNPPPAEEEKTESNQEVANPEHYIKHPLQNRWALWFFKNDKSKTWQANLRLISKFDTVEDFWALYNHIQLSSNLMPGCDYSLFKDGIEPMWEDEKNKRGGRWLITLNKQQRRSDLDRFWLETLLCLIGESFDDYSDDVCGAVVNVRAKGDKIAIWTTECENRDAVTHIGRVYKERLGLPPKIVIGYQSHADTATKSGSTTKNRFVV
Large T antigen, sequence (P03070 whole entry): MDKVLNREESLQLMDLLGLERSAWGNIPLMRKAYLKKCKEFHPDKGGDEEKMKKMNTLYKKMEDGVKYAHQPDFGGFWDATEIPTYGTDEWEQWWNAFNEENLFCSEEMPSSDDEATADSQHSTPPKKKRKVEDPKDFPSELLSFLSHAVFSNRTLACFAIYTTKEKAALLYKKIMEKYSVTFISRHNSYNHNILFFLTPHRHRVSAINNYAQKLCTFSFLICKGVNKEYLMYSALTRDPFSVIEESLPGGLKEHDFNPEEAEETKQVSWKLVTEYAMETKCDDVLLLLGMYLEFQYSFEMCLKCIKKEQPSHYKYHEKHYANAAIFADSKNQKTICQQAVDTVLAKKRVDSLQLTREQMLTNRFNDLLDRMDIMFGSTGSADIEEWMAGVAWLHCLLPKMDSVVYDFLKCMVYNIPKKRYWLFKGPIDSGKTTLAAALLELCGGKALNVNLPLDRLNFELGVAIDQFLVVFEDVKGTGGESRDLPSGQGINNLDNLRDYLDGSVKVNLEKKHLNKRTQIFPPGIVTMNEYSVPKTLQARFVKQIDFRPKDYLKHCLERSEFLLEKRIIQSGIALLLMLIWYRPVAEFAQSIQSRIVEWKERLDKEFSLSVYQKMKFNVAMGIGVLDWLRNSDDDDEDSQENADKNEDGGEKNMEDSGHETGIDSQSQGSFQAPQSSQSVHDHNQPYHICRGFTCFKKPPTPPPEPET
Peroxisome proliferator-activated receptor gamma/Nuclear receptor coactivator 1, sequence (P37231 whole entry): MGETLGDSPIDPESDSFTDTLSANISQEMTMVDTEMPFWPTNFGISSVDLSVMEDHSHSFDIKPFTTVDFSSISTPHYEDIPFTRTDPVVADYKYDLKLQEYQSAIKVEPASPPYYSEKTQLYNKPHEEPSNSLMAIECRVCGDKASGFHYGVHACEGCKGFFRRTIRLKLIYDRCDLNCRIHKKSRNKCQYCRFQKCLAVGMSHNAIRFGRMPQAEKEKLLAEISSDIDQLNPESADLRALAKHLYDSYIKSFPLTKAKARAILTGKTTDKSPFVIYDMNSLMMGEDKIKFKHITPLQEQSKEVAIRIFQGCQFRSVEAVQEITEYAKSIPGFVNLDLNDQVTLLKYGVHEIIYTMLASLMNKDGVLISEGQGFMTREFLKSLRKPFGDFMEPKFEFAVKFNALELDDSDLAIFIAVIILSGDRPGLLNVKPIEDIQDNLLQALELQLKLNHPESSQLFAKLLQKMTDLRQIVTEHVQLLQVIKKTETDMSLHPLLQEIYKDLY
Peroxisome proliferator-activated receptor gamma/Nuclear receptor coactivator 1, sequence (Q15788 whole entry, further chain): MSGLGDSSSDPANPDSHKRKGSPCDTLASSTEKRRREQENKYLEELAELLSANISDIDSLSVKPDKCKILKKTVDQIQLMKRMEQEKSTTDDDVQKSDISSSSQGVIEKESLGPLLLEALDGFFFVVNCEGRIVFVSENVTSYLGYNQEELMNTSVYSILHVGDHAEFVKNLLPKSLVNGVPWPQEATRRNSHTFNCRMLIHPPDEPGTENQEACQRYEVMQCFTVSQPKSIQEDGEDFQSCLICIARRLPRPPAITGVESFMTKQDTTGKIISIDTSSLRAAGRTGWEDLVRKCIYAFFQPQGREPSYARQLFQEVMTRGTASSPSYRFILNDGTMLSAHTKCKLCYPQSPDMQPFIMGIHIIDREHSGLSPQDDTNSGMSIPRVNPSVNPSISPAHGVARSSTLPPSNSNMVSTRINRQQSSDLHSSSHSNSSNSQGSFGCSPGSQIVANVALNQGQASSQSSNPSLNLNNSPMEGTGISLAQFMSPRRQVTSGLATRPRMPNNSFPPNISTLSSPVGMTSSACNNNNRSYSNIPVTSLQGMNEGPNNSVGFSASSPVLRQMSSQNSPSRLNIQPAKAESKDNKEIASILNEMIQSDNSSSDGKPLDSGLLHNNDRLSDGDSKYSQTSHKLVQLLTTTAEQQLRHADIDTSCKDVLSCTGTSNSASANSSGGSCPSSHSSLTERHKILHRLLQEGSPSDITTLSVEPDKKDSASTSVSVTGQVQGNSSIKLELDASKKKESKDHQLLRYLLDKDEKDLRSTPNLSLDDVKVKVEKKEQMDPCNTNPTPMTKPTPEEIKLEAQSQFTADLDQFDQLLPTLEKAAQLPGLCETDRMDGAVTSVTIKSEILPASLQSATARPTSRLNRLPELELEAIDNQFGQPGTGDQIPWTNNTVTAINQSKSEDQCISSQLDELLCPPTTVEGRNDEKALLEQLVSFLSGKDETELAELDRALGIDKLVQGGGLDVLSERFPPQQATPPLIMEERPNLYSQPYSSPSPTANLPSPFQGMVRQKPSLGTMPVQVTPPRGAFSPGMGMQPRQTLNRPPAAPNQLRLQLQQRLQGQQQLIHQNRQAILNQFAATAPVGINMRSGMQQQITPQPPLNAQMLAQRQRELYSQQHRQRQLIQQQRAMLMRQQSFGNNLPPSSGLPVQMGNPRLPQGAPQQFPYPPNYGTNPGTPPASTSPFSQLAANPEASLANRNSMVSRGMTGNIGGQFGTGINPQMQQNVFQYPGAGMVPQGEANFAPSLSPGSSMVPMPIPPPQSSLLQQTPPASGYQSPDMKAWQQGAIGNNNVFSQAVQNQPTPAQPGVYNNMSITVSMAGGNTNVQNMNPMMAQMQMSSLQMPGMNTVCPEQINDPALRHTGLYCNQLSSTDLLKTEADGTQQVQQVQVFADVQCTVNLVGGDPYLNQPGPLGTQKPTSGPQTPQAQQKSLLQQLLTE
Peroxisome proliferator-activated receptor gamma/Nuclear receptor coactivator 2, sequence (P37231 whole entry): as the sequence (P37231 whole entry) above
Peroxisome proliferator-activated receptor gamma/Nuclear receptor coactivator 2, sequence (Q15596 whole entry, further chain): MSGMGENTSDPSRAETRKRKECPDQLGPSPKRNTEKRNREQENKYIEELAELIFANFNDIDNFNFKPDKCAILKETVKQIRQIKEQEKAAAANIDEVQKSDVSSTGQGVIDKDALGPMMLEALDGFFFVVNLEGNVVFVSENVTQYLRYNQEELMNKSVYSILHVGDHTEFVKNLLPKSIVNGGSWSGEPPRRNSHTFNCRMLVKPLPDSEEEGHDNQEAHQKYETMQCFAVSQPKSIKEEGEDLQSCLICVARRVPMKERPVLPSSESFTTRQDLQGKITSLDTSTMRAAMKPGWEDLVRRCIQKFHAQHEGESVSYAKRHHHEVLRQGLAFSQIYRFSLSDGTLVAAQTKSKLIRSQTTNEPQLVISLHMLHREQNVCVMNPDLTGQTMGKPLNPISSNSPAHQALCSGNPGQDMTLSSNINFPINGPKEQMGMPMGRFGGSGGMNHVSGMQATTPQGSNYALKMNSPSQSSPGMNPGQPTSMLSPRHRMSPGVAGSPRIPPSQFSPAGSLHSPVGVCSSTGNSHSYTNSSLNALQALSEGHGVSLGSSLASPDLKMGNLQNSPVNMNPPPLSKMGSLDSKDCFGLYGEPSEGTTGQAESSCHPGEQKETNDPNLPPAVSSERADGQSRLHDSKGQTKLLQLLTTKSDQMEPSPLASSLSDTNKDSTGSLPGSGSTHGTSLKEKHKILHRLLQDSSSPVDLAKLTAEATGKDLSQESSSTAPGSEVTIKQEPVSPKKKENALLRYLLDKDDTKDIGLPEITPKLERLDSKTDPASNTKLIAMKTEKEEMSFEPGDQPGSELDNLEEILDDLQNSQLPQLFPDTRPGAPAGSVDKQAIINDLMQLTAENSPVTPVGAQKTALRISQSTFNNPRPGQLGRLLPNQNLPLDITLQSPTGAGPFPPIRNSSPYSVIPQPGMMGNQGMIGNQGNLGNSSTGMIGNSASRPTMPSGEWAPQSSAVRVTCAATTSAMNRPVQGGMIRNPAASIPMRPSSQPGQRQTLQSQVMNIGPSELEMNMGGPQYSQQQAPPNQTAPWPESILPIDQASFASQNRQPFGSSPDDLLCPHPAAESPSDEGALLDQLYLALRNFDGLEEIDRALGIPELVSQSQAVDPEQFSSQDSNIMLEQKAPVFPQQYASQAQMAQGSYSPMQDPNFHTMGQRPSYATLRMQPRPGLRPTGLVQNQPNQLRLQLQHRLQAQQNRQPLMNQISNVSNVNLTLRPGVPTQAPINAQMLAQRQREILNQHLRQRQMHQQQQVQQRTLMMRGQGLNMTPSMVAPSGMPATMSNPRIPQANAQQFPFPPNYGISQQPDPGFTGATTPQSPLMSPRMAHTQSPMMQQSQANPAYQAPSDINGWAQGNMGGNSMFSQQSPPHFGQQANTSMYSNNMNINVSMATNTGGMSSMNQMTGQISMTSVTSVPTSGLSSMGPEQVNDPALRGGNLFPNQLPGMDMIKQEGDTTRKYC

With `Nc1ccc(-c2ncc(-c3ccccc3)o2)cc1` the EC50 [1] was < 0.1 µM (active), the EC50 [2] was 0.07 µM (active) and the EC50 (cells) was 0.178 µM (active). For the same molecule, the EC50 [3] was < 0.1 µM (active), the EC50 [4] was < 0.1 µM (active) and the EC50 [5] was 0.044 µM (active). For the same molecule, the AC50 [6] was 0.171 µM (active).
For `COc1ccc(C2C(C(=O)c3cccs3)=C(O)C(=O)N2c2nnc(C)s2)cc1OC` (configuration not stated), the AC50 (ORF 73) was 17.5 µM (active), the Ki (fMet-Leu-Phe receptor) was > 66.7 µM (inactive) and the AC50 (HeLa) was > 350 µM (inactive). The EC50 [7] was 7.2 µM (active) and the EC50 [8] was 5.19 µM (active).
With `CCOC(=O)N1CCN(CC(=O)Nc2ccc([N+](=O)[O-])cc2C(=O)Nc2ccccc2F)CC1` the IC50 [9] was 51.6 µM (inactive).
For `CCn1c(=O)cc(SCC(=O)N2CCN(C(=O)c3ccco3)CC2)c2ccccc21`, the EC50 [10] was > 79.4 µM (not active), the EC50 [11] was > 79.4 µM (inactive) and the IC50 [9] was > 80 µM (inactive). The EC50 [12] was > 79.4 µM (not active).
In the case of `Cc1cc(N)ccc1N=Nc1c(C)n(C)n(-c2ccccc2)c1=O`, the IC50 (Large T antigen) was 33.9 µM (active) and the AC50 (HeLa) was 285 µM (active).
With `COc1ccc(-c2noc(N3CCC(C(=O)Nc4cccc(OC)c4)CC3)n2)cc1` the IC50 [9] was > 80 µM (inactive).
With `COc1ccc(-c2ccc(N(C)C)cc2)cc1[C@H]1[C@H]2C=CC[C@@H](C)[C@@H]2C(=O)N1Cc1ccccc1` the IC50 [9] was > 80 µM (inactive).
In the case of `COc1cc(C(=O)N2CCN(c3cc(Cl)ccc3Cl)CC2)cc(OC)c1OC`, the EC50 [1] was 0.164 µM (active), the IC50 [13] was > 80 µM (inactive) and the EC50 [2] was 0.575 µM (active). The EC50 (cells) was 0.457 µM (active), the EC50 [3] was < 0.1 µM (active) and the EC50 [4] was 0.148 µM (active). The EC50 [5] was 0.352 µM (active).
For `COc1ccc(OC)c(NC(=O)COC(=O)c2cc3c(s2)CCC3)c1`, the IC50 [14] was 50 µM (inactive) and the IC50 [15] was 2.39 µM (active).
In the case of `CCCc1nc(SC)nc(O)c1C`, the AC50 (HeLa) was 81.7 µM (active).
In the case of `CC(C)(C)c1ccc(OCc2ccc(C(=O)N/N=C3\CC4CC=CC34)cc2)cc1` (configuration not stated), the CC50 [16] was > 40 µM (active).
